Laboratory results reported in patent US8106055B2, “Substituted amide compounds” (Gruenenthal GmbH, priority 2007, dated 2012).

Legend:
[1] = target: T1, bradykinin 1 receptor (B1R) of the rat (Rattus norvegicus, UniProt P97583); experiment: Functional investigation on the rat bradykinin 1 receptor (B1R), Ca2+ FLIPR assay in CHO K1 rB1R cells; format: cell-based; settings: B1R antagonism rat; test substance 10 μM; Ca2+ FLIPR, CHO K1 rB1R cells
T1 construct: expressed in transfected cells; host or cells: CHO K1 cells
T1 sequence (P97583 1-337): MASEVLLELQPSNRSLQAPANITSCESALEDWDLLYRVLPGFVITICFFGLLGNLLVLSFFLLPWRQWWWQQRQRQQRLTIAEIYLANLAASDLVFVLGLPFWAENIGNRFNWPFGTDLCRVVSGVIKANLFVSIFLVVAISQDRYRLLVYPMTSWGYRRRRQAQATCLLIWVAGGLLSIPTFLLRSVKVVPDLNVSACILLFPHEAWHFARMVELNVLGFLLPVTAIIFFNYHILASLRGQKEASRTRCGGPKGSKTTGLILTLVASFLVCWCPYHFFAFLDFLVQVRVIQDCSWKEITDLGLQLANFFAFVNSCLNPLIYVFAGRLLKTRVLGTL
Method in brief: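 Stably transfected CHO K1 cells loaded with Fluo-4; FLIPR Ca2+ fluorescence peak (ex 488/em 540 nm). Compound added first (agonism vs Lys-Des-Arg9-bradykinin ≥50 nM human, Des-Arg9-bradykinin 10 μM rat), then after 10-20 min agonist at EC80; antagonism as % inhibition, IC50 from concentration series, n=2-3, N≥2.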

human μ opiate receptor = target: T2, human μ opiate receptor (Homo sapiens, UniProt P35372); experiment: Affinity for the human μ opiate receptor ([3H]-naloxone displacement, CHO-K1 receptor membrane preparation, SPA); format: binding; settings: test concentration of 1 μM
T2 construct: purchased PerkinElmer Life Sciences, Zaventem, Belgium RB-HOM; host or cells: CHO-K1 cells (membrane preparation)
T2 sequence (P35372 whole entry): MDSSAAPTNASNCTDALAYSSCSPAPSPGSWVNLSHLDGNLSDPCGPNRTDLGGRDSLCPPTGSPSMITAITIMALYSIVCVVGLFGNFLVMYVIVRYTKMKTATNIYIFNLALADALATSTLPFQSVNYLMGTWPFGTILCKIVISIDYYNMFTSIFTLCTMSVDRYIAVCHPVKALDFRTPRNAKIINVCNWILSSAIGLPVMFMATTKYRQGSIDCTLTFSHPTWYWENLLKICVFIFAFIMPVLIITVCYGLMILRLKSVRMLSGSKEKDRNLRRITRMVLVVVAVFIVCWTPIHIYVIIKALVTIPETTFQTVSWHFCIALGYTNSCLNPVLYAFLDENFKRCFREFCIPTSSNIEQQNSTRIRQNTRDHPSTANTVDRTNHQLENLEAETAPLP
Method in brief: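 CHO-K1 membranes expressing human μ receptor incubated 90 min at room temperature with 1 nmol/l [3H]-naloxone and WGA-SPA beads in 50 mmol/l Tris-HCl, 0.06% BSA; 100 μmol/l naloxone defines non-specific binding. Values are % inhibition of specific binding at 1 μM; IC50 converted to Ki by Cheng-Prusoff.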

Compound	B1R Ant. r [10 μM] % Inhibition [1]	μ (binding on the μ opioid receptor, % inhibition) (human μ opiate receptor)
CCN(CCOCC(=O)NCCC1CCC(C(c2ccc(Cl)cc2)N(C)C)CC1)S(=O)(=O)c1c(C)cc(OC)c(C)c1C (stereo not drawn) [Example 434]	58%	46%
COc1cc(C)c(S(=O)(=O)N2CCC(OCC(=O)NCC3CCC(C(c4ccc(Cl)cc4)N(C)C)CC3)C2)c(C)c1C (stereo not drawn) [Example 428]	8%	49%
COc1cc(C)c(S(=O)(=O)N(CCOCC(=O)NCC2CCC(C(c3cccc(F)c3)N(C)C)CC2)Cc2ccccc2)c(C)c1C (stereo not drawn) [Example 414]	10%	64%
CN(C)C(c1ccc(Cl)cc1)C1CCC(CNC(=O)COC2CCN(S(=O)(=O)c3ccc(F)cc3)C2)CC1 (stereo not drawn) [Example 394]	21%	56%
CN(C)C(c1ccc(F)cc1)C1CCC(CNC(=O)COCCN2CCN(S(=O)(=O)c3ccccc3)CC2)CC1 (stereo not drawn) [Example 433]	−12%	46%
CN(C)C(c1ccc(Cl)cc1)C1CCC(CCNC(=O)COCCN(C)S(=O)(=O)c2c(Cl)cc(Cl)cc2Cl)CC1 (stereo not drawn) [Example 442]	11%	54%
CN(C)C(c1ccc(Cl)cc1)C1CCC(CCNC(=O)COC2CCCCC2N(C)S(=O)(=O)c2ccc(Cl)c(Cl)c2)CC1 (stereo not drawn) [Example 410]	6%	50%
CN(C)C(c1ccc(F)cc1)C1CCC(NC(=O)COC2CCCN(S(=O)(=O)c3ccccc3)C2)CC1 (stereo not drawn) [Example 423]	−20%	47%
CN(C)C(c1ccc(F)cc1)C1CCC(CNC(=O)COCCN(C)S(=O)(=O)c2c(Cl)cc(Cl)cc2Cl)CC1 (stereo not drawn) [Example 404]	33%	53%
CN(C)C(c1ccc(F)cc1)C1CCC(NC(=O)COC2CCN(S(=O)(=O)c3ccc(F)cc3)C2)CC1 (stereo not drawn) [Example 381]	12%	54%
COc1cc(C)c(S(=O)(=O)N2CCCC(OCC(=O)NCC3CCC(C(c4ccc(F)cc4)N(C)C)CC3)C2)c(C)c1C (stereo not drawn) [Example 418]	6%	51%
CN(C)C(c1ccc(F)cc1)C1CCC(CNC(=O)COCCN(C)S(=O)(=O)c2ccc(F)cc2)CC1 (stereo not drawn) [Example 400]	9%	55%
COc1cc(C)c(S(=O)(=O)N(C)CCOCC(=O)NC2CCC(C(c3ccc(F)cc3)N(C)C)CC2)c(C)c1 (stereo not drawn) [Example 422]	104%	43%
CN(C)C(CCc1ccccc1)C1CCC(CNC(=O)COCC2CCCN2S(=O)(=O)c2ccc(Cl)c(Cl)c2)CC1 (stereo not drawn) [Example 415]	39%	55%
Cc1ccc(S(=O)(=O)N2CCC(OCC(=O)NC3CCC(C(c4ccc(F)cc4)N(C)C)CC3)C2)cc1 (stereo not drawn) [Example 371]	5%	57%
COc1cc(C)c(S(=O)(=O)N2CCCC(OCC(=O)NCC3CCC(C(c4ccc(Cl)cc4)N(C)C)CC3)C2)c(C)c1C (stereo not drawn) [Example 449]	−7%	46%
CN(C)C(c1ccc(F)cc1)C1CCC(NC(=O)COC2CCN(S(=O)(=O)c3ccccc3)CC2)CC1 (stereo not drawn) [Example 408]	1%	48%
CN(C)C(c1ccc(F)cc1)C1CCC(NC(=O)COCCN(C)S(=O)(=O)c2c(Cl)cc(Cl)cc2Cl)CC1 (stereo not drawn) [Example 382]	30%	60%
CN(C)C(c1ccc(Cl)cc1)C1CCC(CCNC(=O)COC2CCN(S(=O)(=O)c3ccccc3)CC2)CC1 (stereo not drawn) [Example 443]	−1%	45%
COc1ccc(S(=O)(=O)N(C)CCOCC(=O)NC2CCC(C(c3cccc(F)c3)N(C)C)CC2)cc1OC (stereo not drawn) [Example 401]	1%	49%
CN(C)C(c1ccc(F)cc1)C1CCC(CNC(=O)COCCN(C)S(=O)(=O)c2ccc(OC(F)(F)F)cc2)CC1 (stereo not drawn) [Example 439]	16%	50%
